In patent US20050220837A1, “Antimicrobial hyaluronic acid coatings for orthopedic implants” (priority 2003, published 2005):

System: hTERT cells
Test: cytotoxicity of chlorhexidine on viability/adhesion of hTERT cells (Calcein AM / Ethidium homodimer)
Format: cell-based, human
Details: 24 h
Description: A separate experiment was carried out to measure the cytotoxicity of different chlorhexidine concentrations on the viability/adhesion of hTERT cells. hTERT cells were cultured as described above onto Thermanox discs in four well plates, but the DMEM with 10% FCS was inoculated with 0.1%, 1% or 10% chlorhexidine. Two control discs were also included containing just DMEM with 10% FCS, one disc was in the same plate as the chlorhexidine samples and the other in a separate four well plate. Plates were incubated at 37° C. for 24 h, before the media was removed and 1 ml DMEM (no FCS) containing 1 μl/ml Calcein AM (reacts with live cells) and 1 μl/ml Ethidium homodimer (reacts with dead cells) was added. The plates were incubated at 37° C. in the dark for a further 30 minutes, then the Thermanox discs were imaged using a Zeiss Epifluorescence microscope. Live well spread cells were seen on the sample not exposed to chlorhexidine, while dead cells were observed on the surface cultured in the same plate as samples exposed to chlorhexidine.

[H]/N=C(\N/C(=N/[H])NCCCCCCNC(=N)NC(=N)Nc1ccc(Cl)cc1)Nc1ccc(Cl)cc1 [chlorhexidine]
hTERT cells on Thermanox disc after exposure (0.1% chlorhexidine in DMEM with 10% FCS): No cells were seen
hTERT cells on Thermanox disc after exposure (1% chlorhexidine in DMEM with 10% FCS): No cells were seen
